Here are results for 19 compounds from ChEMBL document CHEMBL4725277, “Synthetic and therapeutic perspectives of nitrogen containing heterocycles as anti-convulsants” (Bioorg Med Chem, 2020).

What is called TD50 is the dose at which the toxic effect under study appears in half of the subjects. Low values mean greater toxicity, high ones lower toxicity. Broadly, the logP is a log measure of how a compound divides between an organic and an aqueous phase. Read a high logP as higher lipophilicity.

Data set [1] has as its system Mus musculus. Description: Anticonvulsant activity in albino mouse assessed as protection against 50 mA current-induced seizure at 25 mg/kg by maximal electroshock seizure test relative to control. The format is functional. (Protection in the maximal electroshock model is a classic sign of anticonvulsant action.)
Data set [2] in a line: Neurotoxicity in mouse by rotarod test. The format is toxicity. The following applies: in vivo. For orientation: In the rotarod test animals must keep their balance on a rotating rod.
Data set [3] is described as follows: Protective index, ratio of TD50 for neurotoxicity in mouse to ED50 for anticonvulsant activity in mouse assessed as protection against 50 mA current-induced seizure. The format is toxicity. The following applies: in vivo, read-out: PI.
Data set [4] is filed under the species Mus musculus. Kind of data set: Anticonvulsant activity in mouse assessed as protection against 50 mA current-induced seizure after 0.5 hrs by maximal electroshock seizure test. The format is functional.
The species named for data set [5] is Mus musculus. Kind of data set: Anticonvulsant activity in albino mouse assessed as pentylenetetrazole-induced seizure. It counts as functional.
Data set [6] is described as follows: Protective index, ratio of TD50 for neurotoxicity in mouse to ED50 for anticonvulsant activity in mouse assessed as protection against pentylenetetrazole-induced seizure. It counts as toxicity. The settings on record: in vivo, read-out: PI.
Data set [7] is described as follows: Protective index, ratio of TD50 for neurotoxicity in mouse to ED50 for anticonvulsant activity in mouse assessed as protection against current-induced seizure. The following applies: in vivo, read-out: PI. The format is toxicity.
Data set [8] is filed under the species Mus musculus. Kind of data set: Anticonvulsant activity in mouse assessed as protection against current-induced seizure by maximal electroshock seizure test. It counts as functional.
Data set [9] can be described thus: Neurotoxicity in ip and po injected mouse. The format is toxicity, organism-based. The settings on record: in vivo.
Data set [10] is described as follows: Protective index, ratio of TD50 for neurotoxicity in ip and po injected mouse to ED50 for anticonvulsant activity in mouse assessed as protection against 50 mA current-induced seizure. It counts as toxicity, organism-based. The settings on record: in vivo, read-out: PI.
Data set [11] is filed under the species Mus musculus. Description: Anticonvulsant activity in albino mouse assessed as current-induced seizure relative to control. The format is functional.
Data set [12] is filed under the species Mus musculus. Kind of data set: Anticonvulsant activity in albino mouse assessed as current-induced seizure latency time. It counts as functional.
A short description of data set [13]: Neurotoxicity in ip injected albino mouse. It counts as toxicity, organism-based. The settings on record: in vivo.
Data set [14] deals with Mus musculus. Kind of data set: Anticonvulsant activity in ip injected albino mouse assessed as protection against 50 mA current-induced seizure by maximal electroshock seizure test. It counts as functional.
The nature of data set [15]: Protective index, ratio of TD50 for neurotoxicity in ip injected albino mouse to ED50 for anticonvulsant activity in ip injected albino mouse assessed as protection against 50 mA current-induced seizure. The format is toxicity, organism-based. The settings on record: in vivo.
The species named for data set [16] is Mus musculus. Kind of data set: Anticonvulsant activity in KunMing mouse assessed as protection against 50 mA current-induced seizure after 0.5 to 4 hrs by maximal electroshock seizure test. The format is functional. The following applies: time hrs 0.5-4.
In data set [17] the test system is Mus musculus. Description: Anticonvulsant activity in ip injected albino mouse assessed as protection against 50 mA current-induced seizure after 0.5 to 4 hrs interval by maximal electroshock seizure test. The following applies: time hrs 0.5-4. It counts as functional.
For data set [18], the species on record is Mus musculus. Kind of data set: Anticonvulsant activity in albino mouse assessed as pentylenetetrazole-induced seizure measured after 30 mins. The format is functional. The settings on record: 0.5 h.
Data set [19] is described as follows: Protective index, ratio of TD50 for neurotoxicity in ip injected albino mouse to ED50 for anticonvulsant activity in albino mouse assessed as pentylenetetrazole-induced seizure. The format is toxicity, organism-based. The settings on record: in vivo.
For data set [20], the species on record is Mus musculus. Description: Anticonvulsant activity in albino mouse assessed as protection against 50 mA current-induced seizure by maximal electroshock seizure test. It counts as functional.
The subject of data set [21] is Mus musculus. Description: Anticonvulsant activity in albino mouse assessed as protection against 50 mA current-induced seizure at 100 mg/kg by maximal electroshock seizure test relative to control. It counts as functional.
The species named for data set [22] is Mus musculus. Description: Anticonvulsant activity in albino mouse assessed as protection against 50 mA current-induced seizure. It counts as functional. The settings on record: read-out: PD50.
The subject of data set [23] is Mus musculus. Description: Anticonvulsant activity in albino mouse assessed as protection against 50 mA current-induced seizure at 50 mg/kg by maximal electroshock seizure test relative to control. It counts as functional.
In data set [24] the test system is Mus musculus. Description: Anticonvulsant activity in albino mouse assessed as protection against 50 mA current-induced seizure at 200 mg/kg by maximal electroshock seizure test relative to control. It counts as functional.
A short description of data set [25]: Lipophilicity, log P of the compound. The following applies: octanol/water. It counts as physicochemical.
Data set [26] in a line: Neurotoxicity in albino rat at 100 mg/kg, ip after 30 mins (reference value: 2%). The settings on record: in vivo, 0.5 h. It counts as toxicity, organism-based.
Data set [27] is described as follows: Neurotoxicity in KunMing mouse after 30 mins by rotarod test. The format is toxicity. The following applies: in vivo.
The species entered for data set [28] is Mus musculus. Description: Anticonvulsant activity in KunMing mouse assessed as protection against 50 mA current-induced seizure after 30 mins interval by maximal electroshock seizure test. The format is functional. The following applies: 0.5 h.
A short description of data set [29]: Protective index, ratio of TD50 for neurotoxicity in KunMing mouse to ED50 for anticonvulsant activity in KunMing mouse assessed as protection against 50 mA current-induced seizure. The settings on record: in vivo, read-out: PI. It counts as toxicity.

As for `Clc1ccc(Nc2nnc(-c3ccncc3)s2)cc1`, the Activity in the data set with Mus musculus [1] worked out at 100%.

`FC(F)(F)c1cccc(COc2nn3cnnc3c3ccccc23)c1`: the TD50 in [2] came out at 853 mg/kg. Besides, the selectivity ratio in data set [3] was 91.7. For the same compound, the ED50 in the data set listed under Mus musculus [4] (Mus musculus, read-out: ED50) came out at 9.3 mg/kg.

The compound `Cc1ccc(NC(=S)N2C(=S)N=C(c3ccccc3)CC2c2ccc(O)cc2)cc1` (configuration not stated) showed a TD50 in data set [2] of 534 mg/kg. The ED50 in the data set filed under Mus musculus [5] was 278 mg/kg; in the data set filed under Mus musculus [8], 15.6 mg/kg. The figures for the selectivity ratio in [6] and in data set [7] were 1.9 and 34.2, respectively.

In [9], `O=c1c2ccccc2n2cnnc2n1-c1ccc(Cl)cc1` had a TD50 above 700 mg/kg. In addition, in data set [10], the selectivity ratio is above 25.6. The ED50 in the data set listed under Mus musculus [4] is given as 27.39.

With `CC(=O)Oc1cc2ccccc2cc1-c1nnc(N(CCc2ccccc2)C(C)=O)s1`, the Activity in the data set filed under Mus musculus [11] is 90%. In the data set filed under Mus musculus [12], the Time was found to be 5.92 min.

In data set [13], `Nc1nc(-c2ccccc2)nnc1C(=O)N1CCCC1c1noc2cc(Cl)ccc12` (configuration not stated) returned a TD50 of 103 mg/kg. For the same compound, the ED50 with Mus musculus [14] amounted to 5.7 mg/kg. The selectivity ratio in [15] (read-out: Ratio) is above 18.

For `O=c1[nH]nc2n1-c1ccc(OCc3ccc(F)cc3)cc1SCC2`, in the data set filed under Mus musculus [16], the ED50 amounted to 26.3 mg/kg. Besides, the TD50 in data set [2] came out at 331 mg/kg. In addition, in data set [3], the selectivity ratio is 12.6.

Consider `COc1ccc(N2C(=S)N=C(c3ccccc3)CC2c2ccccc2)cc1` (configuration not stated), for which the ED50 in the data set on Mus musculus [17] amounted to 16.8 mg/kg; in the data set filed under Mus musculus [18], 378 mg/kg. In addition, in data set [13], the TD50 amounted to 534 mg/kg. For the same compound, the values for the selectivity ratio in data set [19] (read-out: PI) and in data set [15] (read-out: PI) were 1.4 and 31.8, respectively.

With `Nc1nnc(-c2ccccc2OCc2ccccc2F)o1`, the results for the ED50 in the data set listed under Mus musculus [20] and in the data set filed under Mus musculus [18] were 16.2 mg/kg and 9 mg/kg, respectively.

For the compound `O=C1CN=C2c3ccccc3N=C(COc3ccc(Cl)cc3Cl)N2N1`, the Activity in the data set with Mus musculus [21] came to 90%; with Mus musculus [23] it was 60%; in the data set on Mus musculus [24], 90%. In the data set filed under Mus musculus [22], the ED50 was 87.5 mg/kg.

On to `COc1ccc(-c2nc(N/N=C/c3ccc(Br)cc3)[nH]c(=O)c2C#N)cc1`, for which the logP in data set [25] is 2.45.

For `Clc1ccc(Nc2nnc(-c3ccncc3)o2)cc1`, in the data set with Mus musculus [1], the Activity is 100%.

For `COc1ccc(-c2nc(N/N=C/c3ccc(O)cc3)[nH]c(=O)c2C#N)cc1`, in data set [25], the log partition coefficient (logP) was found to be 1.27.

The compound `CN(C)CCOc1ccc2c(c1)C(=O)C(=O)N2` gave an Activity in [26] of 7%.

In [2], `Clc1ccc(Oc2cccc3nncn23)cc1` registered a TD50 of 63.4 mg/kg. In addition, the selectivity ratio in data set [7] turned out to be 4.8. For the same compound, the ED50 in the data set filed under Mus musculus [8] came to 13.2 mg/kg.

In [2], `CCCCOc1ccc2c(c1)sc1n[nH]c(=O)n12` registered a TD50 above 700 mg/kg. In addition, in data set [7], the selectivity ratio was above 51. Besides, in the data set listed under Mus musculus [8], the ED50 is 13.6 mg/kg.

Turning to `CCCCCCOc1ccc2c(c1)CCc1nnc(C(N)=O)n1-2`, the TD50 at 0.5 h in data set [27] amounted to 286 mg/kg. In the data set listed under Mus musculus [28], the ED50 was 30.1 mg/kg. For the same compound, in data set [29], the selectivity ratio came to 9.5.

`CN(C)Nc1ccc(/C=N/Nc2nnc(-c3ccccc3)nc2Cc2cccc(Cl)c2)cc1`: the ED50 in the data set on Mus musculus [17] is 54.3 mg/kg; in the data set listed under Mus musculus [18] it was 92 mg/kg. This compound registered a TD50 in data set [13] of 435 mg/kg. Further, the selectivity ratio in [19] (read-out: Ratio) worked out at 4.73; in data set [15] (read-out: Ratio) it was 8.01.

`Nc1nc(-c2ccccc2)nnc1C(=O)N1CCCC1c1noc2cc(F)ccc12` (configuration not stated) gave a TD50 in data set [13] above 300 mg/kg. Besides, in the data set on Mus musculus [14], the ED50 was determined as 6.2 mg/kg. Besides, the selectivity ratio in data set [15] (read-out: Ratio) is above 48.4.
